Assay results from PMC11965064, “Identification and verification of methylenetetrahydrofolate dehydrogenase 1-like protein as the binding target of natural product pseudolaric acid A” (Natural Products and Bioprospecting, 2025).

Molecular target: T1, methylenetetrahydrofolate dehydrogenase 1-like (MTHFD1L) (Homo sapiens, UniProt Q6UB35)
T1 construct: MTHFD1L (68–978 AA), recombinant from E. coli, MBP tag cleaved with thrombin
T1 sequence (Q6UB35 68-978): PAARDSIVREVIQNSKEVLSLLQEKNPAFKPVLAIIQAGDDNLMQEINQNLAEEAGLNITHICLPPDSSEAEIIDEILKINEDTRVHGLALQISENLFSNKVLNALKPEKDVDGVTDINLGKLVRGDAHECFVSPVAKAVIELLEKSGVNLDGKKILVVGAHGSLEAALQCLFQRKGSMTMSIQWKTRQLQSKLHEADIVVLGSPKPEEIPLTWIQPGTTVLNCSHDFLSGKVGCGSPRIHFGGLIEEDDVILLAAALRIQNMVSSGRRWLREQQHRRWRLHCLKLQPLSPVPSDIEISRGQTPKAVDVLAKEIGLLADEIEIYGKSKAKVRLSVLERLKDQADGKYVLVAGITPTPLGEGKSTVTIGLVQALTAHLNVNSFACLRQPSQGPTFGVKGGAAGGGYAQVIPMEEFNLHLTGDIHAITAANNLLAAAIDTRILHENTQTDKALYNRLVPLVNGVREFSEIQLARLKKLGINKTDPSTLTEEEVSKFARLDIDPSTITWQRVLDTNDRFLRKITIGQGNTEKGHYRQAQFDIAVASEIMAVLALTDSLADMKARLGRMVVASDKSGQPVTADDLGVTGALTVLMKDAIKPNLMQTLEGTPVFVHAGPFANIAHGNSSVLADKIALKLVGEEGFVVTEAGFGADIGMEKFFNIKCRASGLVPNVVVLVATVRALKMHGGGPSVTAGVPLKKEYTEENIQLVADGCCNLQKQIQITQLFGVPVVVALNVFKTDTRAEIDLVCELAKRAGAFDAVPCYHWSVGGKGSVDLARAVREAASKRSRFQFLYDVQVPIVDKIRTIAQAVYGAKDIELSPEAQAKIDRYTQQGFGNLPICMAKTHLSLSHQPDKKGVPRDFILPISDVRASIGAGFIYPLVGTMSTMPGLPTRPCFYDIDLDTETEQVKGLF
Test: SPR (Biacore T200, steady-state affinity); supported by NMR STD, DARTS and ABPP competition
Format: binding

CC(=O)O[C@]12CCC(C)=CC[C@]13CC[C@H]2[C@@](C)(/C=C/C=C(\C)C(=O)O)OC3=O [PAA, pseudolaric acid A]
Kd: ~4.05 µM
